Data reported in patent US8076487B2, “Pyridone derivative and herbicide” (Kumiai Chemical Industry Co., Ltd., priority 2006, dated 2011).

Legend:
Format in all cases: in vivo
[1] = test system: velvetleaf (Abutilon theophrasti medicus); assay: Test Example 2: herbicidal effect by soil application to upland field; conditions: soil surface spray, upland field soil, 1,000 g active ingredient per hectare, 21st day after application
In short: (§1)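 Pots of field soil, seeds sown and soil-covered; wettable powder diluted in water sprayed on soil at 1,000 g a.i./ha (1,000 L/ha). Greenhouse-grown; herbicidal effect rated per standard at 21 days post-application.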

[2] = test system: barnyardgrass (Echinochloa crus-galli (L.) P. Beauv. var. crus-galli); assay: as above; conditions: soil surface spray, upland field soil, 1,000 g active ingredient per hectare, 21st day after application
In short: as §1

[3] = test system: green foxtail (Setaria viridis (L.) P. Beauv.); assay: as above; conditions: soil surface spray, upland field soil, 1,000 g active ingredient per hectare, 21st day after application
In short: as §1

[4] = test system: slender amaranth (Amaranthus viridis L.); assay: as above; conditions: soil surface spray, upland field soil, 1,000 g active ingredient per hectare, 21st day after application
In short: as §1

[5] = test system: early watergrass (Echinochloa oryzicola Vasing); assay: Test Example 1: herbicidal effect by soil application to paddy field; conditions: paddy field soil application; active ingredient 1,000 g per 1 hectare; wettable powder added dropwise to water surface the day after sowing; examined on the 21st day after application
In short: (§2)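 Under greenhouse conditions, seeds sown on puddled paddy soil in 100 cm2 pots under 3 cm of standing water received the test compound; injury was assessed with a standard scoring scheme three weeks (day 21) after treatment.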

[6] = test system: Japanese bulrush (Scirpus juncoides Roxb.); assay: as above; conditions: paddy field soil application; active ingredient 1,000 g per 1 hectare; wettable powder added dropwise to water surface the day after sowing; examined on the 21st day after application
In short: as §2

[7] = test system: heartshape false pickerelweed (Monochoria vaginalis (Burm.f.) C.Presl); assay: as above; conditions: paddy field soil application; active ingredient 1,000 g per 1 hectare; wettable powder added dropwise to water surface the day after sowing; examined on the 21st day after application
In short: as §2

[8] = test system: velvetleaf (Abutilon theophrasti medicus); assay: Test Example 3: herbicidal effect by application to upland field (foliage treatment); conditions: 14th day after application; for herbicidal effect, Velvetleaf: foliage treatment, 1,000 g active ingredient per 1 hectare, greenhouse; for herbicidal effect (index), Velvetleaf: foliage treatment, plants grown two weeks, 1,000 g active ingredient per hectare
In short: (§3)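 Two weeks after sowing in field soil under greenhouse conditions, seedlings receive a top-down foliar spray of wettable powder diluted in water at an active-ingredient rate of 1,000 g per hectare. Effect is rated against a standard 14 days post-treatment.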

[9] = test system: barnyardgrass (Echinochloa crus-galli (L.) P. Beauv. var. crus-galli); assay: as above; conditions: 14th day after application; for herbicidal effect, Barnyardgrass: foliage treatment, 1,000 g active ingredient per 1 hectare, greenhouse; for herbicidal effect (index), Barnyardgrass: foliage treatment, plants grown two weeks, 1,000 g active ingredient per hectare
In short: as §3

[10] = test system: green foxtail (Setaria viridis (L.) P. Beauv.); assay: as above; conditions: 14th day after application; for herbicidal effect, Green Foxtail: foliage treatment, 1,000 g active ingredient per 1 hectare, greenhouse; for herbicidal effect (index), Green Foxtail: foliage treatment, plants grown two weeks, 1,000 g active ingredient per hectare
In short: as §3

[11] = test system: slender amaranth (Amaranthus viridis L.); assay: as above; conditions: 14th day after application; for herbicidal effect, Slender Amaranth: foliage treatment, 1,000 g active ingredient per 1 hectare, greenhouse; for herbicidal effect (index), Slender Amaranth: foliage treatment, plants grown two weeks, 1,000 g active ingredient per hectare
In short: as §3

Compound | herbicidal effect (index), Velvetleaf [1] | herbicidal effect (index), Barnyardgrass [2] | herbicidal effect (index), Green Foxtail [3] | herbicidal effect (index), Slender Amaranth [4] | herbicidal effect, Echinochloa oryzicola Vasing [5] | herbicidal effect, Scirpus juncoides Roxb. [6] | herbicidal effect, Monochoria vaginalis (Burm. f.) C. Presl [7] | herbicidal effect, Velvetleaf [8] | herbicidal effect, Barnyardgrass [9] | herbicidal effect, Green Foxtail [10] | herbicidal effect, Slender Amaranth [11] | herbicidal effect (index), Velvetleaf [8] | herbicidal effect (index), Barnyardgrass [9] | herbicidal effect (index), Green Foxtail [10] | herbicidal effect (index), Slender Amaranth [11]
COCC(C)n1c(C(F)(F)F)ccc(C(=O)c2cnn(C)c2O)c1=O (stereo not drawn) [IV-36] | 5 (90% or more of herbicidal effect and crop phytotoxicity) | 5 (90% or more of herbicidal effect and crop phytotoxicity) | 3 (50 to less than 70% of herbicidal effect and crop phytotoxicity) | 5 (90% or more of herbicidal effect and crop phytotoxicity) | 5 (90% or more of herbicidal effect and crop phytotoxicity) | 5 (90% or more of herbicidal effect and crop phytotoxicity) | 5 (90% or more of herbicidal effect and crop phytotoxicity) | 5 (90% or more of herbicidal effect and crop phytotoxicity) | 5 (90% or more of herbicidal effect and crop phytotoxicity) | 5 (90% or more of herbicidal effect and crop phytotoxicity) | 5 (90% or more of herbicidal effect and crop phytotoxicity) |  |  |  | 
O=C1CCCC(O)=C1C(=O)c1ccc(C(F)(F)F)n(CSC2CCCC2)c1=O [I-59] | 5 (90% or more of herbicidal effect and crop phytotoxicity) | 5 (90% or more of herbicidal effect and crop phytotoxicity) | 4 (70 to less than 90% of herbicidal effect and crop phytotoxicity) | 5 (90% or more of herbicidal effect and crop phytotoxicity) | 5 (90% or more of herbicidal effect and crop phytotoxicity) | 5 (90% or more of herbicidal effect and crop phytotoxicity) | 5 (90% or more of herbicidal effect and crop phytotoxicity) |  |  |  |  | 5 (90% or more of herbicidal effect and crop phytotoxicity) | 5 (90% or more of herbicidal effect and crop phytotoxicity) | 5 (90% or more of herbicidal effect and crop phytotoxicity) | 5 (90% or more of herbicidal effect and crop phytotoxicity)
O=C1CCCC(O)=C1C(=O)c1ccc(C(F)(F)F)n(C2CC2)c1=O [I-16] | 5 (90% or more of herbicidal effect and crop phytotoxicity) | 5 (90% or more of herbicidal effect and crop phytotoxicity) | 5 (90% or more of herbicidal effect and crop phytotoxicity) | 5 (90% or more of herbicidal effect and crop phytotoxicity) | 5 (90% or more of herbicidal effect and crop phytotoxicity) | 5 (90% or more of herbicidal effect and crop phytotoxicity) | 5 (90% or more of herbicidal effect and crop phytotoxicity) |  |  |  |  | 5 (90% or more of herbicidal effect and crop phytotoxicity) | 5 (90% or more of herbicidal effect and crop phytotoxicity) | 5 (90% or more of herbicidal effect and crop phytotoxicity) | 5 (90% or more of herbicidal effect and crop phytotoxicity)
N#Cc1cccc(-n2c(C(F)(F)F)ccc(C(=O)C3=C(O)CCCC3=O)c2=O)c1 [I-94] | 5 (90% or more of herbicidal effect and crop phytotoxicity) | 5 (90% or more of herbicidal effect and crop phytotoxicity) | 5 (90% or more of herbicidal effect and crop phytotoxicity) | 5 (90% or more of herbicidal effect and crop phytotoxicity) | 5 (90% or more of herbicidal effect and crop phytotoxicity) | 5 (90% or more of herbicidal effect and crop phytotoxicity) | 5 (90% or more of herbicidal effect and crop phytotoxicity) |  |  |  |  | 5 (90% or more of herbicidal effect and crop phytotoxicity) | 5 (90% or more of herbicidal effect and crop phytotoxicity) | 5 (90% or more of herbicidal effect and crop phytotoxicity) | 5 (90% or more of herbicidal effect and crop phytotoxicity)
Cn1ncc(C(=O)c2ccc(C(F)(F)F)n(C3CC3)c2=O)c1O [IV-18] | 5 (90% or more of herbicidal effect and crop phytotoxicity) | 5 (90% or more of herbicidal effect and crop phytotoxicity) | 5 (90% or more of herbicidal effect and crop phytotoxicity) | 5 (90% or more of herbicidal effect and crop phytotoxicity) | 5 (90% or more of herbicidal effect and crop phytotoxicity) | 5 (90% or more of herbicidal effect and crop phytotoxicity) | 5 (90% or more of herbicidal effect and crop phytotoxicity) | 5 (90% or more of herbicidal effect and crop phytotoxicity) | 5 (90% or more of herbicidal effect and crop phytotoxicity) | 5 (90% or more of herbicidal effect and crop phytotoxicity) | 5 (90% or more of herbicidal effect and crop phytotoxicity) |  |  |  | 
COC(Cn1c(C(F)(F)F)ccc(C(=O)C2=C(O)CCCC2=O)c1=O)OC [I-137] | 5 (90% or more of herbicidal effect and crop phytotoxicity) | 5 (90% or more of herbicidal effect and crop phytotoxicity) | 5 (90% or more of herbicidal effect and crop phytotoxicity) | 5 (90% or more of herbicidal effect and crop phytotoxicity) | 5 (90% or more of herbicidal effect and crop phytotoxicity) | 5 (90% or more of herbicidal effect and crop phytotoxicity) | 5 (90% or more of herbicidal effect and crop phytotoxicity) | 5 (90% or more of herbicidal effect and crop phytotoxicity) | 5 (90% or more of herbicidal effect and crop phytotoxicity) | 4 (70 to less than 90% of herbicidal effect and crop phytotoxicity) | 5 (90% or more of herbicidal effect and crop phytotoxicity) |  |  |  | 
